Results as given in patent publication US11685741B2, “Fluorescent probes” (University of Massachusetts, priority 2017, dated 2023).

Legend:
[1] = Metal ion sensing: UV-vis and fluorescence response to Fe2+ and other metal ions
Experimental: Selectivity and spectroscopic properties of the Rh6GD sensor were investigated to evaluate the performance of the fluorescence sensor in solution. The solution of metal ions were prepared from chloride salts of Ni^2+, Fe^3+, Cu^2+, Mn^2+, Hg^2+, Na^+, Ca^2+, Zn^2+, Ag^+, and nitrate salts of Mg^2+, K^+, Co^2+ (1 mM) in deionized water, except for Cu^2+ and Co^2+, which were dissolved in acetonitrile anhydrous. Solution of Cu^+ was freshly prepared by dissolving tetrakis(acetonitrile)copper(I) (Sigma-Aldrich) into double-distilled water. […]
(§1) The color change for Fe^2+ is readily detected visually. […]
The changes in fluorescence spectra of Rh6GD with the addition of different metal ions in H2O/THF (pH 7.32, v/v 4:1) are shown in FIG. 23. When Fe^2+ was added into the solution of Rh6GD, a large fluorescence enhancement at 549 nm was observed, induced by the complexation of Fe^2+.
Moreover, upon the addition of 1 equiv of Fe^2+ into solutions containing one of the other metal ions tested, the fluorescence was activated and the intensity increased to a level similar to that observed in the presence of Fe^2+ only (the black bars in FIG. 24).
Metal ion selectivity and spectroscopic properties of the sensor were investigated to evaluate the performance of the fluorescence sensor Rh101D. […]
as §1

Caco-2 cells = test: Imaging labile iron pools in hepcidin-stimulated Caco-2 cells; type: cell-based, human
Experimental: For kinetic experiment, Caco-2 cells (ATCC) were maintained in Dulbecco's minimal essential medium (DMEM, ATCC) supplemented with 10% fetal bovine serum (FBS, ATCC), 100 U/ml penicillin G, and 100 μg/ml streptomycin at 37° C. in a humid atmosphere of 5% CO2 atmosphere. The culture medium was replaced with a fresh medium every 2-3 days. After being nearly confluent, the cells were used for experiment.
The ability of NIRh-Fret to monitor the changes in cellular labile Fe^2+ stores triggered by hepcidin stimulation, a key iron regulatory hormone produced by the liver which controls iron homeostasis was studied (C. H. Park, et al., J. Biol. Chem., 2001, 276, 7806; G. Nicolas, et al, Blood Cells Mol. Dis., 2002, 29, 327; and T. Ganz, Blood, 2003, 102, 783). […] For Fe^2+ replete conditions, live Caco-2 cells were incubated with 100 μM of ferrous ammonium sulfate (Fe (NH4)2(SO4)2) at 37° C. for 6 h followed by washing with DMEM medium to remove excess Fe^2+ and then 10 μM of NIRh-Fret was added to the culture media and was incubated at 37° C. for 30 min. For hepcidin stimulated condition, Cells was treated first with 100 μM of ferrous ammonium sulfate (Fe (NH4)2(SO4)2) for 1 h, followed by addition of 0.5 μM hepcidin and then incubated for another 5 h.

With `CCNc1cc2c(cc1C)C1(c3cc(C)c(NCC)cc3O2)c2ccccc2C(=O)N1/N=C/C=C/c1ccc(N(C)C)cc1` [Rh6GD, 2-(((1E,2E)-3-(4-(dimethylamino)phenyl)allylidene)amino)-3′,6′-bis(ethylamino)-2′,7′-dimethylspiro[isoindoline-1,9′-xanthen]-3-one] as the compound, how does the “fluorescence enhancement response to Fe^2+” value [1] read?
The value was 3 fold.

And the emission intensity enhancement ([1]; 1.0 equiv of Fe^2+, H2O/THF pH 7.32, 549 nm (Rh6GD), 743 nm (NIRh-Fret))?
The emission intensity enhancement was “around 3 times”.

Which results are given for `CCN(CC)c1ccc2c(c1)OC1=C(CCC/C1=C\C=C1\N(C)c3ccccc3C1(C)C)C21c2ccccc2C(=O)N1/N=C\C=C\c1ccc(N(C)C)cc1` (centres unmarked) [NIRh-Fret, (E)-6′-(diethylamino)-2-(((1Z,2E)-3-(4-(dimethylamino)phenyl)allylidene)amino)-4′-(2-((E)-1,3,3-trimethylindolin-2-ylidene)ethylidene)-1′,2′,3′,4′-tetrahydrospiro[isoindoline-1,9′-xanthen]-3-one]?
fluorescence of cells with sensor only (Caco-2 cells; 10 μM NIRh-Fret): weak fluorescence; fluorescence of hepcidin-treated, iron supplemented cells versus Fe^2+ supplementation only (Caco-2 cells; 100 μM ferrous ammonium sulfate 1 h, then 0.5 μM hepcidin 5 h): significant increase in fluorescent signals; fluorescence after Fe^2+, hepcidin and Bpy (Caco-2 cells; 40 min 1 mM Bpy, versus Fe^2+ supplementation only): decrease in fluorescence signal
